Tests used:
[1] = for Stabilized Chlorine Dioxide Concentration, 0 Days / Stabilized Chlorine Dioxide Concentration, 7 Days / Stabilized Chlorine Dioxide Concentration, 14 Days: ingredient added at ppm shown (100) to brimonidine composition; for Stabilization of chlorine dioxide by the excipient (in words): summary of Table 1
Experimental: Each of the excipients was added, in the amounts shown, to a proprietary composition comprising brimonidine as a therapeutically active agent.

[2] = chlorine dioxide to ClO2-; permanganate to manganese dioxide; cited from earlier work

SMILES	Stabilized Chlorine Dioxide Concentration, 0 Days [1]	Stabilized Chlorine Dioxide Concentration, 7 Days [1]	Stabilized Chlorine Dioxide Concentration, 14 Days [1]	Stabilization of chlorine dioxide by the excipient (in words) [1]	Standard reduction potential [2]
O=C(O)CN(CCN(CC(=O)O)CC(=O)O)CC(=O)O [EDTA]	44 ppm	2 ppm	0 ppm	do not stabilize the chlorine dioxide	
NCCN [Ethylene diamine]				do not stabilize the chlorine dioxide	
O=C([O-])/C(O)=C(\O)C(=O)[O-].[Na+].[Na+] [Sodium Dihydroxyfurmarate]	37 ppm	13 ppm	0 ppm		
O=C[O-].[Na+] [Sodium Formate]	42 ppm	40 ppm	36 ppm		
CC(O)C(=O)[O-].[Na+] (centres unmarked) [Sodium Lactate]	45 ppm	40 ppm	37 ppm		
O=C([O-])C(=O)[O-].[Na+].[Na+] [Sodium Oxalate]	39 ppm	38 ppm	35 ppm	ineffective	
CC(=O)C(=O)[O-].[Na+] [Sodium Pyruvate]				ineffective	
[O][Cl+][O-] [chlorine dioxide]					1.07 V
